Like-named read-outs stand apart in the source and are kept apart here.

This is an account of results in US12257263B2, “Pharmaceutical compositions for demodex related blepharitis and eyelid crusting” (Tarsus Pharmaceuticals, Inc., priority 2014, dated 2025).

One data set deals with demodex mites. Kind of data set: Presence of demodex mites in eyelash follicles of treated patients. It counts as in vivo, demodex folliculorum.
Data set [1] deals with Demodex folliculorum-associated Oculocutaneous Rosacea. The conditions noted are these: oral, child, JAMA Dermatol 2014; cited from earlier work.
The conditions of data set [2]: approximately 0.5% to 1% added to balanced salt solutions; cited from earlier work.
The test system of the next data set is rabbit eyes. The conditions noted are these: cited from earlier work.
A further data set relates to eyes of six rabbits. The conditions noted are these: cited from earlier work.
The test system of a further data set is eye. The conditions noted are these: human, in vivo. The method, then:
As this invention is to be used topically, good absorption is achieved by using Propylene Glycol as a solvent for the ivermectin. According to the Cosmetic Ingredients Report Panel Meeting on Jun. 28-29, 2010, the ocular irritation of Propylene Glycol was determined using groups of 6 males and female New Zealand white albino rabbits.

Data set [3] has as its system New Zealand white albino rabbits. The conditions noted are these: undiluted, groups of 6 rabbits; cited from earlier work.
For another data set, the system named is rabbit skin. The conditions noted are these: undiluted test material; cited from earlier work.
A further data set concerns skin. The conditions noted are these: 6-day cumulative, cited from earlier work.
Another data set deals with human subjects. The conditions noted are these: formulation containing 7.6% of Ethylhexyl Stearate, cited from earlier work.
For a further data set, the system named is rabbit's eyes. The conditions noted are these: cited from earlier work.

`CC[C@H](C)[C@H]1O[C@]2(CC[C@@H]1C)C[C@@H]1C[C@@H](C/C=C(\C)[C@@H](O[C@H]3C[C@H](OC)[C@@H](O[C@H]4C[C@H](OC)[C@@H](O)[C@H](C)O4)[C@H](C)O3)[C@@H](C)/C=C/C=C3\CO[C@@H]4[C@H](O)C(C)=C[C@@H](C(=O)O1)[C@]34O)O2` [Ivermectin (Stromectol), ivermectin]: the demodex mites entry in the data set on demodex mites (Example 2 patient, oral 12 mg plus 4 subsequent doses, with Tea Tree Oil eyelid scrubs twice a day, over 2 months) is reported as “reduced in numbers but were not completely eliminated”. Moreover, the “elimination of demodex mites” value in the data set with demodex mites (oral, a single dose, applicant's experience) is “does not eliminate the demodex mites”. For the same compound, the treatment outcome in data set [1] is “successfully treated”.
In the case of `O=C(O)CN(CCN(CC(=O)O)CC(=O)O)CC(=O)O` [EDTA, Ethylenediaminetetraacetic acid], the toxicity result in [2] is “not toxic”.
For the compound `O=C([O-])CN(CCN(CC(=O)[O-])CC(=O)O)CC(=O)O.[Na+].[Na+]` [Disodium EDTA, disodium EDTA], the “mucous membrane irritation classification” value in the data set on rabbit eyes is reported as “non-irritant”.
`Cc1c(C)c2c(c(C)c1O)CCC(C)(CCCC(C)CCCC(C)CCCC(C)C)O2` (racemic) [dl-α-tocopherol]: in the data set on eyes of six rabbits (rabbit, in vivo), the “conjunctival irritation (redness)” value is “Weak to moderate conjunctival irritation” and the “time by which conjunctival irritation subsided” value was at most 7 days. Moreover, the corneal changes result in the data set with eyes of six rabbits (undiluted, six rabbits, eyes not rinsed) is given as “No corneal changes”.
Turning to `CC(O)CO` (centres unmarked) [Propylene Glycol], the eye irritation entry in the data set on eye is recorded as “non-irritating”. Besides, in [3], the ocular irritation result is reported as “slight eye irritant”.
In the case of `CCCCCCCCCCCCCCCCCC(=O)OCC(CC)CCCC` (centres unmarked) [Ethylhexyl Stearate], the skin irritation result with rabbit skin is on record as “at most mildly irritating”. Also, the “mean maximum irritation index (MMII)” value in the data set with skin (10% aqueous solution) is on record as 0.33; with skin (undiluted test material) it was 0.67. Further, the skin tolerance entry in the data set with skin (10% aqueous solution) is “relatively well tolerated”; in the data set on skin (undiluted test material), “poorly tolerated”. Moreover, the phototoxicity entry in the data set with human subjects (10 subjects) is “not phototoxic”. In the data set on human subjects (27 subjects, some slight reactions reported), the photosensitisation result is “not a photosensitizer”. Besides, the irritation and sensitization entry with human subjects (56 subjects) was “not an irritant or sensitizer”. For the same compound, in the data set with rabbit's eyes (undiluted test material), the eye injury result is listed as “did not provoke any significant injury”. Further, the “max Primary irritation Index (PII)” value in the data set with rabbit's eyes (undiluted, out of 100, at 1 h) is reported as 4.67.
